Tested on: patients with Alzheimer's disease
Assay: Phase 3 study AB09004: change from baseline in ADAS-Cog score
Type: in vivo, human
Design: key to δLSM (ADAS-Cog) / 8LSM (ADAS-Cog): LSM diff. of ADAS-Cog change from baseline; negative = improvement
Details: for ALSM (ADAS-Cog) / 8LSM (ADAS-Cog) / ΔLSM (ADAS-Cog) / δLSM (ADAS-Cog): 4.5 mg/kg/day; for ALSM (ADAS-Cog) / ΔLSM (ADAS-Cog): vs placebo, week 24; for 8LSM (ADAS-Cog) / δLSM (ADAS-Cog): week 24 from baseline
Experimental: An international, multicenter, randomized, double-blind, placebo-controlled phase 3 study was conducted with the objective to evaluate oral masitinib at a dose of 4.5 mg/kg/day as a treatment for Alzheimer's disease.
Eligible patients, aged at least 50 years, were diagnosed with dementia of Alzheimer's type according to Diagnostic and Statistical Manual of Mental Disorders (DSM)-IV criteria, and probable Alzheimer's disease according to NINCDS-ADRDA (National Institute of Neurological and Communicative Diseases and Stroke/Alzheimer's Disease and Related Disorders Association) criteria. […] Patients with any other cause of dementia not due to Alzheimer's disease were ineligible for the study.
Eligible patients were treated during 24 weeks with masitinib at a dose of 4.5 mg/kg/day (mg per kilo body weight per day) or with placebo. Treatment was administered as add-on therapy in patients who had been treated for a minimum of 6 months with a stable dose of cholinesterase inhibitors (donepezil, rivastigmine or galantamine) and/or memantine, with no changes foreseen in therapy throughout the study.
Primary analysis was based on the co-primary endpoints of: • Change from baseline in Alzheimer's Disease Cooperative Study Activities of Daily Living (ADCS-ADL) score. The ADCS-ADL assesses the competence of patients with Alzheimer's disease in basic and instrumental activities of daily living (ADLs). • Change from baseline in Alzheimer's Disease Assessment Scale-Cognitive Subscale (ADAS-Cog). The ADAS-Cog assesses cognition and memory.
Treatment effect (masitinib versus placebo) was assessed based on absolute change from baseline to week 24 by using an analysis of covariance model (ANCOVA linear model) with the following factors: treatment, baseline value, and stratification criteria of baseline MMSE score, age, ADCS-ADL total score, and ADAS-Cog total score.
The ADAS-Cog version used in study AB09004 included 11 items regrouped as follows: language (items 1, 2, 3), praxia and gnosia (items 5, 7, 8, 9), memory (items 4, 10, 11), orientation (item 6). The items range either from 0 to 5 (items 1, 2, 3, 5, 7, 8, 9, 11), or from 0 to 8 (item 6), or from 0 to 10 (item 4), or from 0 to 12 (item 10). The global score, which is the sum of the 11 items, ranges from 0 to 70, with higher scores indicating greater cognitive impairment. Results are expressed as a least-squares means difference (δLSM) of absolute change in ADAS-Cog score from baseline; that is to say, the change over time in the ADAS-Cog score, or in other words the difference between the ADAS-Cog score at baseline and the ADAS-Cog score after treatment with masitinib or with placebo. A decrease in ADAS-Cog score with respect to baseline (i.e., a negative δLSM) indicates an improvement in the patient and therefore disease stability, whereas an increase in ADAS-Cog score with respect to baseline (i.e., a positive δLSM) indicates a worsening in the patient and therefore disease progression. Treatment-effect is reported as the difference between treatment-arms (ΔLSM) (calculated as δLSM[masitinib] minus δLSM[placebo]), with a negative value indicating a beneficial effect of treatment with masitinib as compared with placebo. In a scenario where both treatment-arms show worsening in cognitive function (i.e., a positive δLSM), then a negative ΔLSM indicates a beneficial treatment effect for masitinib, i.e., the rate of decline in masitinib treated patients is slower than that of patients from the placebo-arm. […]

Compound: Cc1ccc(NC(=O)c2ccc(CN3CCN(C)CC3)cc2)cc1Nc1nc(-c2cccnc2)cs1 [masitinib, 4-(4-methylpiperazin-1-ylmethyl)-N-[4-methyl-3-(4-pyridin-3ylthiazol-2-ylamino)phenyl]benzamide]
- ALSM (ADAS-Cog) (Baseline ADAS-Cog >32): −1.6044 points
- 8LSM (ADAS-Cog) (Baseline ADAS-Cog >32): −7.2739
- ALSM (ADAS-Cog) (Baseline ADAS-Cog >40): −0.2351 points
- 8LSM (ADAS-Cog) (Baseline ADAS-Cog >40): −4.9348
- ALSM (ADAS-Cog) (Baseline ADAS-Cog ≤32): −2.1011 points
- 8LSM (ADAS-Cog) (Baseline ADAS-Cog ≤32): −1.5266
- ALSM (ADAS-Cog) (Baseline ADAS-Cog ≤40): −2.3299 points
- 8LSM (ADAS-Cog) (Baseline ADAS-Cog ≤40): −1.4472
- ΔLSM (ADAS-Cog) (Diagnosis >2 years): −1.3581 points
- δLSM (ADAS-Cog) (Diagnosis >2 years): −1.2197
- ΔLSM (ADAS-Cog) (Diagnosis >3 years): −0.3770 points
- δLSM (ADAS-Cog) (Diagnosis >3 years): −0.7048
- ΔLSM (ADAS-Cog) (Diagnosis >4 years): −1.3426 points
- δLSM (ADAS-Cog) (Diagnosis >4 years): −1.2607
- ΔLSM (ADAS-Cog) (Diagnosis >5 years): −1.4470 points
- δLSM (ADAS-Cog) (Diagnosis >5 years): −1.4756
- ΔLSM (ADAS-Cog) (Diagnosis ≤2 years): −2.7754 points
- δLSM (ADAS-Cog) (Diagnosis ≤2 years): −1.6958
- ΔLSM (ADAS-Cog) (Diagnosis ≤3 years): −2.8700 points
- δLSM (ADAS-Cog) (Diagnosis ≤3 years): −1.7671
- ΔLSM (ADAS-Cog) (Diagnosis ≤4 years): −2.3435 points
- δLSM (ADAS-Cog) (Diagnosis ≤4 years): −1.4948
- ΔLSM (ADAS-Cog) (Diagnosis ≤5 years): −2.2599 points
- δLSM (ADAS-Cog) (Diagnosis ≤5 years): −1.4394
- ΔLSM (ADAS-Cog) (MMSE <13): −0.4996 points
- δLSM (ADAS-Cog) (MMSE <13): 2.1702
- ΔLSM (ADAS-Cog) (MMSE <14): 1.0497 points
- δLSM (ADAS-Cog) (MMSE <14): 3.6165
- ΔLSM (ADAS-Cog) (MMSE <15): −1.0976 points
- δLSM (ADAS-Cog) (MMSE <15): 1.5482
- ΔLSM (ADAS-Cog) (MMSE <16): −1.0624 points
- δLSM (ADAS-Cog) (MMSE <16): 0.8538
- ΔLSM (ADAS-Cog) (MMSE <17): −1.0127 points
- δLSM (ADAS-Cog) (MMSE <17): 0.9251
- ΔLSM (ADAS-Cog) (MMSE [12-20]): −1.7387 points
- δLSM (ADAS-Cog) (MMSE [12-20]): −1.0350
- ΔLSM (ADAS-Cog) (MMSE [25-21]): −2.8929 points
- δLSM (ADAS-Cog) (MMSE [25-21]): −2.4719
- ΔLSM (ADAS-Cog) (MMSE ≥13): −2.1488 points
- δLSM (ADAS-Cog) (MMSE ≥13): −1.4717
- ΔLSM (ADAS-Cog) (MMSE ≥14): −2.4192 points
- δLSM (ADAS-Cog) (MMSE ≥14): −1.8028
- ΔLSM (ADAS-Cog) (MMSE ≥15): −2.2577 points
- δLSM (ADAS-Cog) (MMSE ≥15): −1.8834
- ΔLSM (ADAS-Cog) (MMSE ≥16): −2.2907 points
- δLSM (ADAS-Cog) (MMSE ≥16): −2.0435
- ΔLSM (ADAS-Cog) (MMSE ≥17): −2.4915 points
- δLSM (ADAS-Cog) (MMSE ≥17): −2.3004
- ΔLSM (ADAS-Cog) (Overall Population): −2.1485 points
- δLSM (ADAS-Cog) (Overall Population): −1.4550
- Δsub/Δoverall (ratio of ΔLSM (ADAS-Cog) at W24, Diagnosis ≤2 years vs overall study population): 1.29
- Δsub/Δoverall (ratio of ΔLSM (ADAS-Cog) at W24, Diagnosis ≤3 years vs overall study population): 1.34
- Δsub/Δoverall (ratio of ΔLSM (ADAS-Cog) at W24, Diagnosis ≤4 years vs overall study population): 1.09
- Δsub/Δoverall (ratio of ΔLSM (ADAS-Cog) at W24, Diagnosis ≤5 years vs overall study population): 1.05
- Δsub/Δoverall (ratio of ΔLSM (ADAS-Cog) at W24, MMSE [20-12] vs overall study population): 0.81
- Δsub/Δoverall (ratio of ΔLSM (ADAS-Cog) at W24, MMSE [25-21] vs overall study population): 1.35
- Δsub/Δoverall (percentage improvement) (ΔLSM (ADAS-Cog) at W24, Diagnosis ≤2 years vs overall study population): 29%
- Δsub/Δoverall (percentage improvement) (ΔLSM (ADAS-Cog) at W24, Diagnosis ≤2 years vs overall study population, listed as M4.5): (29%)
- Δsub/Δoverall (percentage improvement) (ΔLSM (ADAS-Cog) at W24, Diagnosis ≤3 years vs overall study population): 34%
- Δsub/Δoverall (percentage improvement) (ΔLSM (ADAS-Cog) at W24, Diagnosis ≤3 years vs overall study population, listed as M4.5): (34%)
- Δsub/Δoverall (percentage improvement) (ΔLSM (ADAS-Cog) at W24, Diagnosis ≤4 years vs overall study population): (9%)
- Δsub/Δoverall (percentage improvement) (ΔLSM (ADAS-Cog) at W24, Diagnosis ≤5 years vs overall study population): (5%)
- Δsub/Δoverall (percentage improvement) (ΔLSM (ADAS-Cog) at W24, MMSE [20-12] vs overall study population): (−19%)
- Δsub/Δoverall (percentage improvement) (ΔLSM (ADAS-Cog) at W24, MMSE [25-21] vs overall study population): 35%
- Δsub/Δoverall (percentage improvement) (ΔLSM (ADAS-Cog) at W24, MMSE [25-21] vs overall study population, listed as M4.5): (35%)
- improved benefit relative to complementary subpopulation (ΔLSM (ADAS-Cog), baseline MMSE 25 to 21 relative to MMSE 20 to 12, printed as 'between 99% to 66%'): 66%
